From PMC11612555, “Impact of camel milk lactoferrin peptides against breast cancer cells: in silico and in vitro study” (Frontiers in Pharmacology, 2024)
In brackets after ≈: the same amount, converted by molar mass. Read-outs that look alike come from different tables or passages of the source. Ends that are not written are not given here. Peptide text beside a SMILES is read from it.

Columns and labels:
HDFa cells = test: MTT assay on HDFa normal cells, 48 h; assay type: cell-based, human; conditions: for IC50 Value: mean ± SD
Description: DMEM medium supplemented with 10% fetal bovine serum (FBS) and 1% penicillin-streptomycin (10,000 U/mL) (complete media) was prepared to culture MCF-7 and HDFa cells in T25 flasks at 37°C in a CO2 incubator. Once the cells had adhered and grown to 70%–90% confluence within 24–48 h, they were transferred to new flasks. 2 mL of 0.25% trypsin was added to detach the cells, which were then incubated for 5 min at 37°C. The trypsin activity was stopped by adding 2 mL of complete media. The detached cells were collected into a tube and centrifuged at 1,500 rpm for 5 min. After removing the supernatant, 3 mL of media was added to resuspend the cell pellet. 20 μL of suspended cells were mixed with 20 µL of 0.4% trypan blue for staining and cell counting. 100 μL of suspended cells in complete media, containing approximately 10^4 cells, were added to each well of a 96-well plate and incubated for 24 h to allow cell attachment. Peptides (PEP20, PEP24, PEP63, PEP66, PEP67, and PEP74) at various concentrations (200, 100, 50, 25, 12.5, 6.25 μg/mL) were then added to the media in each well. Each concentration was repeated three times. After a 48-h incubation period at 37°C, the peptide-treated medium was replaced with 100 µL of 0.5 mg/mL MTT and incubated for 4 h at 37°C in the dark. Following removal of the MTT and addition of 100 µL of DMSO, the absorbance of each well in the 96-well plate was measured at 595 nm using an ELISA reader (Bio-RAD microplate reader, Japan) ([Ali et al., 2018]; [Salim et al., 2022]).
The percentage viability was calculated by multiplying the absorbance of treated cells by 100 and dividing the absorbance of untreated cells. The viability of untreated cells is considered 100%. The each concentration of each peptide and cisplatin was repeated triplicate. The unite of cell viability and IC50 are percentage and μg/mL. The viability and IC50 of the treated cells are expressed as the mean ± standard deviation (SD). GraphPad Prism software (version 9.0, San Diego, CA, United States) was used to calculate the IC50 values of the peptides, […], and their combination.

MCF-7 cells = system: MCF-7 cells; parameters: % of inhibition of MCF-7: dose or concentration left out as unconfirmed; conditions: for IC50 Range / IC50 Value: MCF-7, MTT; for IC50 Value: mean ± SD
Description: DMEM medium supplemented with 10% fetal bovine serum (FBS) and 1% penicillin-streptomycin (10,000 U/mL) (complete media) was prepared to culture MCF-7 and HDFa cells in T25 flasks at 37°C in a CO2 incubator. Once the cells had adhered and grown to 70%–90% confluence within 24–48 h, they were transferred to new flasks. 2 mL of 0.25% trypsin was added to detach the cells, which were then incubated for 5 min at 37°C. The trypsin activity was stopped by adding 2 mL of complete media. The detached cells were collected into a tube and centrifuged at 1,500 rpm for 5 min. After removing the supernatant, 3 mL of media was added to resuspend the cell pellet. 20 μL of suspended cells were mixed with 20 µL of 0.4% trypan blue for staining and cell counting. 100 μL of suspended cells in complete media, containing approximately 10^4 cells, were added to each well of a 96-well plate and incubated for 24 h to allow cell attachment. […] Each concentration was repeated three times. After a 48-h incubation period at 37°C, the peptide-treated medium was replaced with 100 µL of 0.5 mg/mL MTT and incubated for 4 h at 37°C in the dark. Following removal of the MTT and addition of 100 µL of DMSO, the absorbance of each well in the 96-well plate was measured at 595 nm using an ELISA reader (Bio-RAD microplate reader, Japan) ([Ali et al., 2018]; [Salim et al., 2022]).
The percentage viability was calculated by multiplying the absorbance of treated cells by 100 and dividing the absorbance of untreated cells. The viability of untreated cells is considered 100%. The each concentration of each peptide and cisplatin was repeated triplicate. The unite of cell viability and IC50 are percentage and μg/mL. The viability and IC50 of the treated cells are expressed as the mean ± standard deviation (SD). GraphPad Prism software (version 9.0, San Diego, CA, United States) was used to calculate the IC50 values of the peptides, mitotane, and their combination.

[1] = IC50 of HDFa related to IC50 of MCF-7

N.N.[Cl][Pt][Cl] [Cisplatin, reference compound]
IC50 Range (HDFa cells): 5.650 to 7.856 µg/mL
IC50 Value (HDFa cells): 6.663 ± 1.10 µg/mL
IC50 Value (HDFa cells; listed as cisplatin): 6.66 µg/mL
SI (selectivity index) (MCF-7 cells; [1]): 1.565
IC50 Range (MCF-7 cells; 48 h): 3.581 to 5.055 µg/mL
IC50 Value (MCF-7 cells; 48 h): 4.255 ± 0.738 µg/mL
IC50 Value (MCF-7 cells; 48 h, listed as cisplatin): 4.25 µg/mL

CSCC[C@H](NC(=O)[C@H](CC(C)C)NC(=O)[C@H](Cc1ccccc1)NC(=O)[C@H](C)NC(=O)[C@H](CS)NC(=O)[C@H](C)NC(=O)[C@H](CCC(=O)O)NC(=O)[C@H](CC(C)C)NC(=O)[C@H](CC(C)C)NC(=O)[C@@H]1CCCN1C(=O)[C@H](CO)NC(=O)[C@@H](NC(=O)[C@H](CO)NC(=O)[C@@H](N)CS)[C@@H](C)O)C(=O)N[C@@H](CCCNC(=N)N)C(=O)O [PEP66, CSTSPLLEACAFLMR] (H-CSTSPLLEACAFLMR-OH; N-terminus and C-terminus assumed)
IC50 Range (HDFa cells): 137.2 to 206.9 µg/mL
SI (selectivity index) (MCF-7 cells; [1]): 3.19
IC50 Range (MCF-7 cells; 48 h): 46.73 to 59.71 µg/mL
IC50 Value (MCF-7 cells; 48 h): 52.82 ± 6.49 µg/mL (≈ 32.2 µM)
% of inhibition of MCF-7 (MCF-7 cells; concentration (Figure 6)): 76.90%
percentage of MCF7 inhibition (MCF-7 cells; dose of 200 μg/mL): 77%

LFFPALLSLGALGLCLAASK [PEP67]
SI (selectivity index) (MCF-7 cells): 0.6

PWNHIKRYF [PEP24, PWNHIKRYF]
IC50 (MCF-7 cells; 48 h): > 200 µg/mL
